Measurements taken from patent US20090098226A1, “COMPOSITION FOR COSMETIC OR PHARMACEUTICAL-DERMATOLOGICAL USE” (priority 2006, published 2009).

Assays:
COX2 [1] = test: Test 2: COX2 expression in human fibroblasts after xanthine/hypoxanthine oxidative stress; type: cell-based; conditions: 24 hours after oxidative stress, insulted human fibroblasts
Description: (§1) Tests on the capacity of the indicated preparations to prevent oxidative damage, induced in dermal tissue cells, were conducted on human fibroblasts which were isolated then cultivated in a suitable culture medium. Oxidative stress was induced by adding a mixture of 40 mM xanthine and 2 mM hypoxanthine to the culture medium, a mixture with known ability to induce formation of Reactive Oxygen Species (ROS), agents which cause cell damage up to necrosis. The preparations under examination could be added, or not, to the broth at the same time as the xanthine/hypoxanthine mixture. The contact time between the xanthine/hypoxanthine mixture and the preparations was 2 hours, at the end of which the cells were transplanted into a fresh culture medium, i.e. containing neither the stress-inducing mixture nor the substance, then allowed to quiesce for periods of 3 or 24 hours. At the end of the stated period, gene expression of the prostaglandin G/H synthase and cyclooxygenase2 (COX2) enzyme was detected which is indicative of the inflammatory state induced in cells by oxidative stress.
Expression of COX2 (normalized fluorescence units vs housekeeping gene 18s rRNA) 24 hours after oxidative stress, in “insulted” cells in the presence of curcumin, curcumin complexed with Zn and FDP used separately, and in the presence of the ternary system.

COX2 [2] = test: Test 3: COX2 expression after oxidative insult (previous test repeated, 3 hours and 24 hours); type: cell-based, human
Description: as §1

O=P(O)(O)OC[C@H]1O[C@@](O)(COP(=O)(O)O)[C@@H](O)[C@@H]1O [FDP, Fructose 1-6 diphosphate]
Expression of COX2 (COX2 [1]; 5 mM): 7.14 normalized fluorescence units vs housekeeping gene 18s rRNA
COX2 expression after oxidative insult (COX2 [2]; 5 mM, 3 hours): 7.87 normalized fluorescence units vs housekeeping gene 18s rRNA
COX2 expression after oxidative insult (COX2 [2]; 5 mM, 24 hours): 7.14 normalized fluorescence units vs housekeeping gene 18s rRNA
COX2 expression after oxidative insult (COX2 [2]; 10 mM, 3 hours): 6.90 normalized fluorescence units vs housekeeping gene 18s rRNA
COX2 expression after oxidative insult (COX2 [2]; 10 mM, 24 hours): 6.45 normalized fluorescence units vs housekeeping gene 18s rRNA

C[C@H]1[C@H](C)CC[C@]2(C)CC[C@]3(C)C(=CC[C@@H]4[C@@]5(C)CC[C@@H](O)[C@](C)(C(=O)O)[C@@H]5CC[C@]43C)[C@H]12 [boswellic acid]
COX2 expression after oxidative insult (COX2 [2]; 100 μM, 3 hours): 7.80 normalized fluorescence units vs housekeeping gene 18s rRNA
COX2 expression after oxidative insult (COX2 [2]; 100 μM, 24 hours): 8.00 normalized fluorescence units vs housekeeping gene 18s rRNA
COX2 expression after oxidative insult (COX2 [2]; 300 μM, 3 hours): 8.10 normalized fluorescence units vs housekeeping gene 18s rRNA
COX2 expression after oxidative insult (COX2 [2]; 300 μM, 24 hours): 8.90 normalized fluorescence units vs housekeeping gene 18s rRNA

COc1cc(/C=C/C(=O)CC(=O)/C=C/c2ccc(O)c(OC)c2)ccc1O [curcumin, Curcumin]
Expression of COX2 (COX2 [1]; 3 μM): 5.00 normalized fluorescence units vs housekeeping gene 18s rRNA
Expression of COX2 (COX2 [1]; 6 μM): 4.90 normalized fluorescence units vs housekeeping gene 18s rRNA
COX2 expression after oxidative insult (COX2 [2]; 3 μM, 3 hours): 5.76 normalized fluorescence units vs housekeeping gene 18s rRNA
COX2 expression after oxidative insult (COX2 [2]; 3 μM, 24 hours): 5.00 normalized fluorescence units vs housekeeping gene 18s rRNA
COX2 expression after oxidative insult (COX2 [2]; 6 μM, 3 hours): 5.45 normalized fluorescence units vs housekeeping gene 18s rRNA
COX2 expression after oxidative insult (COX2 [2]; 6 μM, 24 hours): 4.90 normalized fluorescence units vs housekeeping gene 18s rRNA
COX2 expression after oxidative insult (COX2 [2]; 9 μM, 3 hours): 5.10 normalized fluorescence units vs housekeeping gene 18s rRNA
COX2 expression after oxidative insult (COX2 [2]; 9 μM, 24 hours): 4.78 normalized fluorescence units vs housekeeping gene 18s rRNA
